ChEMBL document CHEMBL1201862, “PubChem BioAssay data set” (2004)
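Cells were grown in 96-well plates and exposed to each compound for 48 hours at five concentrations; endpoints were interpolated linearly between bracketing concentrations, or set to the highest concentration if not reached. GI50 = concentration required for 50% inhibition of growth.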 Calls of active or inactive are those of the source. No stated cut-off is given here; in the data, active = GI50 up to about 1.1 µM and inactive = higher.

Columns and labels:
Test in all cases: inhibition of tumour cell growth, NCI panel, 48 h
MDA-N = tested on: MDA-N
COLO 205 = tested on: COLO 205
OVCAR-8 = tested on: OVCAR-8
TK-10 = tested on: TK-10
M14 = tested on: M14
HT-29 = tested on: HT-29
UO-31 = tested on: UO-31
Malme-3M = tested on: Malme-3M
SR = tested on: SR
A549 = tested on: A549
SK-OV-3 = tested on: SK-OV-3
ACHN = tested on: ACHN
PC-3 = tested on: PC-3
KM12 = tested on: KM12
SNB-75 = tested on: SNB-75
DU-145 = tested on: DU-145
MDA-MB-435 = tested on: MDA-MB-435
SN12C = tested on: SN12C
SF-268 = tested on: SF-268
MDA-MB-231 = tested on: MDA-MB-231
T47D = tested on: T47D
MOLT-4 = tested on: MOLT-4
MCF7 = tested on: MCF7
NCI-H460 = tested on: NCI-H460
HOP-92 = tested on: HOP-92
HCT-15 = tested on: HCT-15
RXF 393 = tested on: RXF 393
LOX IMVI = tested on: LOX IMVI
U-251 = tested on: U-251
HL-60 = tested on: HL-60
SK-MEL-28 = tested on: SK-MEL-28
OVCAR-3 = tested on: OVCAR-3
HOP-62 = tested on: HOP-62
NCI-H23 = tested on: NCI-H23
SF-295 = tested on: SF-295
CAKI-1 = tested on: CAKI-1
BT-549 = tested on: BT-549
RPMI-8226 = tested on: RPMI-8226
SW-620 = tested on: SW-620
UACC-257 = tested on: UACC-257
SNB-19 = tested on: SNB-19
786-0 = tested on: 786-0
NCI-H226 = tested on: NCI-H226
HCT-116 = tested on: HCT-116
OVCAR-4 = tested on: OVCAR-4
SK-MEL-5 = tested on: SK-MEL-5
SF-539 = tested on: SF-539
K562 = tested on: K562
EKVX = tested on: EKVX
IGROV-1 = tested on: IGROV-1
UACC-62 = tested on: UACC-62
Hs-578T = tested on: Hs-578T
CCRF-CEM = tested on: CCRF-CEM
HCC 2998 = tested on: HCC 2998
SK-MEL-2 = tested on: SK-MEL-2
NCI/ADR-RES = tested on: NCI/ADR-RES
OVCAR-5 = tested on: OVCAR-5
NCI-H522 = tested on: NCI-H522
A498 = tested on: A498

SMILES: CC(C)NC(=O)OCCN=C1c2ccccc2CCc2ccccc21
- GI50 (MDA-N): 18.7 µM (inactive)
- GI50 (COLO 205): 19.1 µM (inactive)
- GI50 (OVCAR-8): 27 µM (inactive)
- GI50 (TK-10): 26.1 µM (inactive)
- GI50 (M14): 20.3 µM (inactive)
- GI50 (HT-29): 21.4 µM (inactive)
- GI50 (UO-31): 23.1 µM (inactive)
- GI50 (Malme-3M): 15.5 µM (inactive)
- GI50 (SR): 18.1 µM (inactive)
- GI50 (A549): 22.8 µM (inactive)
- GI50 (SK-OV-3): 24.8 µM (inactive)
- GI50 (ACHN): 27.2 µM (inactive)
- GI50 (PC-3): 20.5 µM (inactive)
- GI50 (KM12): 37.2 µM (inactive)
- GI50 (SNB-75): 24.3 µM (inactive)
- GI50 (DU-145): 25.5 µM (inactive)
- GI50 (MDA-MB-435): 30.6 µM (inactive)
- GI50 (SN12C): 18.8 µM (inactive)
- GI50 (SF-268): 26.2 µM (inactive)
- GI50 (MDA-MB-231): 25.2 µM (inactive)
- GI50 (T47D): 21 µM (inactive)
- GI50 (MOLT-4): 14.8 µM (inactive)
- GI50 (MCF7): 22.6 µM (inactive)
- GI50 (NCI-H460): 28.2 µM (inactive)
- GI50 (HOP-92): 24.5 µM (inactive)
- GI50 (HCT-15): 24.7 µM
- GI50 (RXF 393): 39.7 µM (inactive)
- GI50 (LOX IMVI): 26.6 µM (inactive)
- GI50 (U-251): 23.8 µM (inactive)
- GI50 (HL-60): 19.2 µM (inactive)
- GI50 (SK-MEL-28): 19.7 µM (inactive)
- GI50 (OVCAR-3): 25 µM (inactive)
- GI50 (HOP-62): 21 µM (inactive)
- GI50 (NCI-H23): 54.3 µM (inactive)
- GI50 (SF-295): 14.7 µM (inactive)
- GI50 (CAKI-1): 24.7 µM (inactive)
- GI50 (BT-549): 13.3 µM (inactive)
- GI50 (RPMI-8226): 18.2 µM (inactive)
- GI50 (SW-620): 28.3 µM (inactive)
- GI50 (UACC-257): 22.9 µM (inactive)
- GI50 (SNB-19): 20.9 µM (inactive)
- GI50 (786-0): 43.6 µM (inactive)
- GI50 (NCI-H226): 25.6 µM (inactive)
- GI50 (HCT-116): 21.9 µM (inactive)
- GI50 (OVCAR-4): 12.2 µM (inactive)
- GI50 (SK-MEL-5): 13.9 µM (inactive)
- GI50 (SF-539): 22.3 µM (inactive)
- GI50 (K562): 21.5 µM (inactive)
- GI50 (EKVX): 23.8 µM (inactive)
- GI50 (IGROV-1): 35.1 µM (inactive)
- GI50 (UACC-62): 16.1 µM (inactive)
- GI50 (Hs-578T): 24 µM (inactive)
- GI50 (CCRF-CEM): 19.6 µM (inactive)
- GI50 (HCC 2998): 18.4 µM (inactive)
- GI50 (SK-MEL-2): 16.4 µM (inactive)
- GI50 (NCI/ADR-RES): 30.3 µM (inactive)
- GI50 (OVCAR-5): 29.4 µM (inactive)

SMILES: CCOc1ccc(/N=N/C2C(=O)N(C(=O)CC(=O)Nc3ccccc3OC)N=C2C)cc1 (stereo not drawn)
- GI50 (MDA-N): 2.52 µM (inactive)
- GI50 (COLO 205): > 100 µM (inactive)
- GI50 (OVCAR-8): 59.8 µM (inactive)
- GI50 (TK-10): > 33.1 µM (inactive)
- GI50 (M14): 25.5 µM (inactive)
- GI50 (HT-29): 4.13 µM (inactive)
- GI50 (UO-31): > 71.1 µM (inactive)
- GI50 (Malme-3M): 21.1 µM (inactive)
- GI50 (A549): > 43.3 µM (inactive)
- GI50 (SK-OV-3): > 37.2 µM (inactive)
- GI50 (ACHN): > 100 µM (inactive)
- GI50 (PC-3): > 100 µM (inactive)
- GI50 (KM12): 4.35 µM (inactive)
- GI50 (SNB-75): 0.916 µM (active)
- GI50 (DU-145): > 77.6 µM (inactive)
- GI50 (MDA-MB-435): 1.93 µM (inactive)
- GI50 (SN12C): > 100 µM (inactive)
- GI50 (SF-268): > 42.8 µM (inactive)
- GI50 (MDA-MB-231): > 36.5 µM (inactive)
- GI50 (T47D): > 65 µM (inactive)
- GI50 (MOLT-4): > 22.3 µM (inactive)
- GI50 (NCI-H522): 11 µM (inactive)
- GI50 (MCF7): 6.61 µM (inactive)
- GI50 (NCI-H460): 13.8 µM (inactive)
- GI50 (HOP-92): > 32.4 µM (inactive)
- GI50 (HCT-15): 14.5 µM
- GI50 (RXF 393): 12.5 µM (inactive)
- GI50 (LOX IMVI): 29.7 µM (inactive)
- GI50 (U-251): > 36 µM (inactive)
- GI50 (HL-60): 4.17 µM (inactive)
- GI50 (SK-MEL-28): > 100 µM (inactive)
- GI50 (OVCAR-3): 8.83 µM (inactive)
- GI50 (HOP-62): > 33.4 µM (inactive)
- GI50 (NCI-H23): 38 µM (inactive)
- GI50 (SF-295): > 36.6 µM (inactive)
- GI50 (CAKI-1): > 36.7 µM (inactive)
- GI50 (BT-549): 13.2 µM (inactive)
- GI50 (RPMI-8226): 45 µM (inactive)
- GI50 (SW-620): 8 µM (inactive)
- GI50 (UACC-257): > 74.3 µM (inactive)
- GI50 (786-0): > 39.1 µM (inactive)
- GI50 (NCI-H226): > 52.1 µM (inactive)
- GI50 (HCT-116): 8.63 µM (inactive)
- GI50 (OVCAR-4): > 19.7 µM (inactive)
- GI50 (SK-MEL-5): 32.3 µM (inactive)
- GI50 (SF-539): 7.83 µM (inactive)
- GI50 (K562): 13.2 µM (inactive)
- GI50 (IGROV-1): 5.43 µM (inactive)
- GI50 (UACC-62): > 44.3 µM (inactive)
- GI50 (Hs-578T): 2.85 µM (inactive)
- GI50 (CCRF-CEM): > 100 µM (inactive)
- GI50 (HCC 2998): > 21.7 µM (inactive)
- GI50 (SK-MEL-2): > 38.2 µM (inactive)
- GI50 (NCI/ADR-RES): 30 µM (inactive)
- GI50 (OVCAR-5): > 100 µM (inactive)
- GI50 (A498): > 30.1 µM (inactive)
